Converted amounts (≈) assume the structure as drawn. Where two headings read alike, the source gives them in different places.
Legend:
A. fumigatus IFM 40808 = assay: In vitro antifungal activity against Aspergillus fumigatus; assay type: cell-based; conditions: RPMI MEDIUM 1640, pH 7, 3.0×10^4 cells/ml, 35° C.; for MIC: Aspergillus fumigatus, read-out: Minimum inhibitory concentration
Protocol: In vitro antifungal activity against Aspergillus fumigatus
Incubation was then conducted at 35° C. for 24 hours.

C. albicans ATCC 44859 = assay: In vitro antifungal activity against Candida albicans; assay type: cell-based; conditions: C. albicans controlled to a yeast-type (no hyphal growth), Eagle's MEM medium with 10% serum, 2.0×10^4 cells/ml, 37° C.; for MIC: Candida albicans, read-out: Minimum inhibitory concentration
Protocol: In vitro antifungal activity against Candida albicans
Incubation was then conducted at 37° C. for 20 hours using a CO2 gas incubator.

[1] = IFM40808, 24 h, pH 7, growth of about 75% of hyphae inhibited
[2] = growth of about 75% of hyphae inhibited, 24 hours

CSC(F)(F)C(O)(Cn1cncn1)c1ccc(F)cc1F (racemic) [Compound(1a-1), 3,3-difluoro-2-(2',4'-difluorophenyl)-3-methylthio-1-(1H-1,2,4-triazol-1-yl)propan-2-ol] was tested, and the MIC (A. fumigatus IFM 40808; [1]) was 4 µg/mL (≈ 12.4 µM) and the MIC (C. albicans ATCC 44859; ATCC44859, 20 h) was 0.0078 µg/mL (≈ 0.0243 µM).
Work on CSC(F)(F)C(O)(Cn1cncn1)c1ccc(Cl)cc1Cl (racemic) [Compound(1a-3), 2-(2',4'-dichlorophenyl)-3,3-difluoro-3-methylthio-1-(1H-1,2,4-triazol-1-yl)propan-2-ol] yielded an MIC (A. fumigatus IFM 40808; [1]) of 2 µg/mL (≈ 5.65 µM) and an MIC (C. albicans ATCC 44859; ATCC44859, 20 h) of 0.0039 µg/mL (≈ 0.011 µM).
CS(=O)(=O)C(F)(F)C(O)(Cn1cncn1)c1ccc(F)cc1 (racemic) [Compound(1c-2), 3,3-difluoro-2-(4'-fluorophenyl)-3-methylsulfonyl-1-(1H-1,2,4-triazol-1-yl)propan-2-ol] showed an MIC (A. fumigatus IFM 40808; [1]) of over 64 µg/mL and an MIC (C. albicans ATCC 44859; ATCC44859, 20 h) of 0.25 µg/mL (≈ 0.746 µM).
CS(=O)(=O)C(F)(F)C(O)(Cn1cncn1)c1ccc(C(F)(F)F)cc1 (racemic) [Compound(1c-4), 3,3-difluoro-3-methylsulfonyl-1-(1H-1,2,4-triazol-1-yl)-2-[4'-(trifluoromethyl)phenyl]propan-2-ol] was tested, and the MIC (A. fumigatus IFM 40808; [1]) was over 64 µg/mL and the MIC (C. albicans ATCC 44859; ATCC44859, 20 h) was 0.125 µg/mL (≈ 0.324 µM).
Compound C[S+]([O-])C(F)(F)C(O)(Cn1cncn1)c1ccc(F)cc1F (single isomer, unassigned) [Compound(1b-1A), 3,3-difluoro-2-(2',4'-difluorophenyl)-3-methylsulfinyl-1-(1H-1,2,4-triazol-1-yl)propan-2-ol] has an MIC (A. fumigatus IFM 40808; [1]) of 64 µg/mL (≈ 190 µM) and a Minimum inhibitory concentration (C. albicans ATCC 44859; 20 hours) of 0.0625 µg/mL (≈ 0.185 µM).
C[S+]([O-])C(F)(F)C(O)(Cn1cncn1)c1ccc(F)cc1F (single isomer, unassigned) [Compound(1b-1B), 3,3-difluoro-2-(2',4'-difluorophenyl)-3-methylsulfinyl-1-(1H-1,2,4-triazol-1-yl)propan-2-ol] was tested, and the Minimum inhibitory concentration (A. fumigatus IFM 40808; [2]) was over 64 µg/mL and the Minimum inhibitory concentration (C. albicans ATCC 44859; 20 hours) was 0.5 µg/mL (≈ 1.48 µM).
In the case of CS(=O)(=O)C(F)(F)C(O)(Cn1cncn1)c1ccc(F)cc1F (single isomer, unassigned; (+)) [(+)-Compound(1c-1), (+)-3,3-difluoro-2-(2',4'-difluorophenyl)-3-methylsulfonyl-1-(1H-1,2,4-triazol-1-yl)propan-2-ol], the Minimum inhibitory concentration (A. fumigatus IFM 40808; [2]) is reported as over 64 µg/mL and the Minimum inhibitory concentration (C. albicans ATCC 44859; 20 hours) is reported as over 1 µg/mL.
With CS(=O)(=O)C(F)(F)C(O)(Cn1cncn1)c1ccc(F)cc1 (single isomer, unassigned; (+)) [(+)-Compound(1c-2), (+)-3,3-difluoro-2-(4'-fluorophenyl)-3-methylsulfonyl-1-(1H-1,2,4-triazol-1-yl)propan-2-ol] the MIC (A. fumigatus IFM 40808; [1]) was over 64 µg/mL and the Minimum inhibitory concentration (C. albicans ATCC 44859; 20 hours) was over 1 µg/mL.
CS(=O)(=O)C(F)(F)C(O)(Cn1cncn1)c1ccc(Cl)cc1Cl (single isomer, unassigned; (+)) [(+)-Compound(1c-3), (+)-2-(2',4'-dichlorophenyl)-3,3-difluoro-3-methylsulfonyl-1-(1H-1,2,4-triazol-1-yl)propan-2-ol] was tested, and the Minimum inhibitory concentration (A. fumigatus IFM 40808; [2]) was over 64 µg/mL and the Minimum inhibitory concentration (C. albicans ATCC 44859; 20 hours) was over 1 µg/mL.
For CS(=O)(=O)C(F)(F)C(O)(Cn1cncn1)c1ccc(C(F)(F)F)cc1 (single isomer, unassigned; (+)) [(+)-Compound(1c-4), (+)-3,3-difluoro-3-methylsulfonyl-1-(1H-1,2,4-triazol-1-yl)-2-[4'-(trifluoromethyl)phenyl]propan-2-ol], the MIC (A. fumigatus IFM 40808; [1]) was over 64 µg/mL and the Minimum inhibitory concentration (C. albicans ATCC 44859; 20 hours) was over 1 µg/mL.
CS(=O)(=O)C(F)(F)C(O)(Cn1cncn1)c1ccc(F)cc1F (single isomer, unassigned; (-)) [(-)-Compound(1c-1), (-)-3,3-difluoro-2-(2',4'-difluorophenyl)-3-methylsulfonyl-1-(1H-1,2,4-triazol-1-yl)propan-2-ol] gave a Minimum inhibitory concentration (A. fumigatus IFM 40808; [2]) of 16 µg/mL (≈ 45.3 µM) and a Minimum inhibitory concentration (C. albicans ATCC 44859; 20 hours) of 0.0313 µg/mL (≈ 0.0886 µM).
For CS(=O)(=O)C(F)(F)C(O)(Cn1cncn1)c1ccc(F)cc1 (single isomer, unassigned; (-)) [(-)-Compound(1c-2), (-)-3,3-difluoro-2-(4'-fluorophenyl)-3-methylsulfonyl-1-(1H-1,2,4-triazol-1-yl)propan-2-ol], the Minimum inhibitory concentration (A. fumigatus IFM 40808; [2]) was 64 µg/mL (≈ 191 µM) and the Minimum inhibitory concentration (C. albicans ATCC 44859; 20 hours) was 0.0625 µg/mL (≈ 0.186 µM).
With CS(=O)(=O)C(F)(F)C(O)(Cn1cncn1)c1ccc(Cl)cc1Cl (single isomer, unassigned; (-)) [(-)-Compound(1c-3), (-)-2-(2',4'-dichlorophenyl)-3,3-difluoro-3-methylsulfonyl-1-(1H-1,2,4-triazol-1-yl)propan-2-ol] the MIC (A. fumigatus IFM 40808; [1]) was 32 µg/mL (≈ 82.9 µM) and the Minimum inhibitory concentration (C. albicans ATCC 44859; 20 hours) was 0.0078 µg/mL (≈ 0.0202 µM).
CS(=O)(=O)C(F)(F)C(O)(Cn1cncn1)c1ccc(C(F)(F)F)cc1 (single isomer, unassigned; (-)) [(-)-Compound(1c-4), (-)-3,3-difluoro-3-methylsulfonyl-1-(1H-1,2,4-triazol-1-yl)-2-(4'-(trifluoromethyl)phenyl]propan-2-ol] gave a Minimum inhibitory concentration (A. fumigatus IFM 40808; [2]) of over 64 µg/mL and a Minimum inhibitory concentration (C. albicans ATCC 44859; 20 hours) of 0.0625 µg/mL (≈ 0.162 µM).
Work on CS(=O)(=O)C(F)(F)C(O)(Cn1cncn1)c1ccc(F)cc1F (stereo not drawn) [Compound (1c-1), 3,3-difluoro-2-(2',4'-difluorophenyl)-3-methylsulfonyl-1-(1H-1,2,4-triazol-1-yl)propan-2-ol] yielded an MIC (A. fumigatus IFM 40808; [1]) of 32 µg/mL (≈ 90.6 µM) and an MIC (C. albicans ATCC 44859; ATCC44859, 20 h) of 0.0625 µg/mL (≈ 0.177 µM).
With CSC(F)(F)C(O)(Cn1cncn1)c1ccc(F)cc1 (stereo not drawn) [Compound(1a-2), 3,3-difluoro-2-(4'-fluorophenyl)-3-methylthio-1-(1H-1,2,4-triazol-1-yl)propan-2-ol] the MIC (A. fumigatus IFM 40808; [1]) was 16 µg/mL (≈ 52.8 µM) and the MIC (C. albicans ATCC 44859; ATCC44859, 20 h) was 0.0625 µg/mL (≈ 0.206 µM).
CSC(F)(F)C(O)(Cn1cncn1)c1ccc(C(F)(F)F)cc1 (stereo not drawn) [Compound(1a-4), 3,3-difluoro-3-methylthio-1-(1H-1,2,4-triazol-1-yl)-2-[4'-(trifluoromethyl)phenyl]propan-2-ol] gave an MIC (A. fumigatus IFM 40808; [1]) of 16 µg/mL (≈ 45.3 µM) and an MIC (C. albicans ATCC 44859; ATCC44859, 20 h) of 0.0156 µg/mL (≈ 0.0442 µM).
Compound CSC(F)(F)C(O)(Cn1cncn1)c1ccccc1 (stereo not drawn) [Compound(1a-5), 3,3-difluoro-3-methylthio-2-phenyl-1-(1H-1,2,4-triazol-1-yl)propan-2-ol] has an MIC (A. fumigatus IFM 40808; [1]) of 16 µg/mL (≈ 56.1 µM) and an MIC (C. albicans ATCC 44859; ATCC44859, 20 h) of 0.125 µg/mL (≈ 0.438 µM).
CS(=O)(=O)C(F)(F)C(O)(Cn1cncn1)c1ccc(Cl)cc1Cl (stereo not drawn) [Compound(1c-3), 2-(2',4'-dichlorophenyl)-3,3-difluoro-3-methylsulfonyl-1-(1H-1,2,4-triazol-1-yl)propan-2-ol] showed an MIC (A. fumigatus IFM 40808; [1]) of 32 µg/mL (≈ 82.9 µM) and an MIC (C. albicans ATCC 44859; ATCC44859, 20 h) of 0.0313 µg/mL (≈ 0.081 µM).
CS(=O)(=O)C(F)(F)C(O)(Cn1cncn1)c1ccccc1 (stereo not drawn) [Compound(1c-5), 3,3-difluoro-3-methylsulfonyl-2-phenyl-1-(1H-1,2,4-triazol-1-yl)propan-2-ol] was tested, and the MIC (A. fumigatus IFM 40808; [1]) was over 64 µg/mL and the MIC (C. albicans ATCC 44859; ATCC44859, 20 h) was 0.5 µg/mL (≈ 1.58 µM).
OC(Cn1cncn1)(Cn1cncn1)c1ccc(F)cc1F [Fluconazole, reference compound] gave an MIC (A. fumigatus IFM 40808; IFM40808, growth of about 75% of hyphae inhibited, 24 hours) of over 64 µg/mL and an MIC (C. albicans ATCC 44859; ATCC44859, 20 hours) of 0.25 µg/mL (≈ 0.816 µM).
